Test results as given in ChEMBL document CHEMBL1649265, “Antimicrobial susceptibilities of Mycoplasma genitalium strains examined by broth dilution and quantitative PCR” (2009).
Converted amounts (≈) assume the structure as drawn.

Experiments:
Type in all cases: functional
Conditions in all cases: Mycoplasmoides genitalium
Mycoplasma genitalium [1] = assay: Antibacterial activity against Mycoplasma genitalium M2341 by broth dilution method
Mycoplasma genitalium [2] = assay: Antibacterial activity against Mycoplasma genitalium TW48-5G by broth dilution method
Mycoplasma genitalium [3] = assay: Antibacterial activity against Mycoplasma genitalium M30 by broth dilution method
Mycoplasma genitalium [4] = assay: Antibacterial activity against Mycoplasma genitalium M6283 by broth dilution method
Mycoplasma genitalium [5] = assay: Antibacterial activity against Mycoplasma genitalium M6284 by broth dilution method
Mycoplasma genitalium [6] = assay: Antibacterial activity against Mycoplasma genitalium M6151 by broth dilution method
Mycoplasma genitalium [7] = assay: Antibacterial activity against Mycoplasma genitalium M6285 by broth dilution method
Mycoplasma genitalium [8] = assay: Antibacterial activity against Mycoplasma genitalium by broth dilution method
Mycoplasma genitalium [9] = assay: Antibacterial activity against Mycoplasma genitalium R32 by broth dilution method
Mycoplasma genitalium [10] = assay: Antibacterial activity against Mycoplasma genitalium M6090 by broth dilution method
Mycoplasma genitalium [11] = assay: Antibacterial activity against Mycoplasma genitalium TW10-5G by broth dilution method
Mycoplasma genitalium [12] = assay: Antibacterial activity against Mycoplasma genitalium M6286 by broth dilution method
Mycoplasma genitalium [13] = assay: Antibacterial activity against Mycoplasma genitalium G37 by broth dilution method
Mycoplasma genitalium [14] = assay: Antibacterial activity against Mycoplasma genitalium M6287 by broth dilution method
Mycoplasma genitalium [15] = assay: Antibacterial activity against Mycoplasma genitalium M6328 by broth dilution method
Mycoplasma genitalium [16] = assay: Antibacterial activity against Mycoplasma genitalium M2300 by broth dilution method
Mycoplasma genitalium [17] = assay: Antibacterial activity against Mycoplasma genitalium M6282 by broth dilution method
Mycoplasma genitalium [18] = assay: Antibacterial activity against Mycoplasma genitalium UTMB-10G by broth dilution method
Mycoplasma genitalium [19] = assay: Antibacterial activity against Mycoplasma genitalium TW10-6G by broth dilution method
Mycoplasma genitalium [20] = assay: Antibacterial activity against Mycoplasma genitalium by quantitative TaqMan PCR method
Mycoplasma genitalium [21] = assay: Antibacterial activity against Mycoplasma genitalium M6280 by broth dilution method
Mycoplasma genitalium [22] = assay: Antibacterial activity against Mycoplasma genitalium M2321 by broth dilution method
Mycoplasma genitalium [23] = assay: Antibacterial activity against Mycoplasma genitalium M6257 by broth dilution method
Mycoplasma genitalium [24] = assay: Antibacterial activity against Mycoplasma genitalium M2282 by broth dilution method

Row | SMILES | MIC (Mycoplasma genitalium [1]) | MIC (Mycoplasma genitalium [2]; read-out: MIC) | MIC (Mycoplasma genitalium [3]; read-out: MIC) | MIC (Mycoplasma genitalium [4]) | MIC (Mycoplasma genitalium [5]) | MIC (Mycoplasma genitalium [6]) | MIC (Mycoplasma genitalium [7]) | MIC50 (Mycoplasma genitalium [8]; read-out: MIC50) | MIC90 (Mycoplasma genitalium [8]; read-out: MIC90) | MIC (Mycoplasma genitalium [9]; read-out: MIC) | MIC (Mycoplasma genitalium [10]) | MIC (Mycoplasma genitalium [11]; read-out: MIC) | MIC (Mycoplasma genitalium [12]) | MIC (Mycoplasma genitalium [13]; read-out: MIC) | MIC (Mycoplasma genitalium [14]) | MIC (Mycoplasma genitalium [15]) | MIC (Mycoplasma genitalium [16]) | MIC (Mycoplasma genitalium [17]) | MIC50 (Mycoplasma genitalium [20]) | MIC90 (Mycoplasma genitalium [20]) | further results
1 | N[C@@H]1CN(c2c(F)cc3c(=O)c(C(=O)O)cn([C@@H]4C[C@@H]4F)c3c2Cl)CC12CC2 [SITAFLOXACIN ANHYDROUS] | 0.008 µg/mL (≈ 0.0195 µM) | 0.063 µg/mL (≈ 0.154 µM) | 0.063 µg/mL (≈ 0.154 µM) | 0.008 µg/mL (≈ 0.0195 µM) | 0.008 µg/mL (≈ 0.0195 µM) | 0.008 µg/mL (≈ 0.0195 µM) | 0.008 µg/mL (≈ 0.0195 µM) | 0.063 µg/mL (≈ 0.154 µM) | 0.125 µg/mL (≈ 0.305 µM) | 0.063 µg/mL (≈ 0.154 µM) | 0.008 µg/mL (≈ 0.0195 µM) | 0.063 µg/mL (≈ 0.154 µM) | 0.008 µg/mL (≈ 0.0195 µM) | 0.063 µg/mL (≈ 0.154 µM) | 0.008 µg/mL (≈ 0.0195 µM) | 0.008 µg/mL (≈ 0.0195 µM) | 0.008 µg/mL (≈ 0.0195 µM) | 0.008 µg/mL (≈ 0.0195 µM) | 0.063 µg/mL (≈ 0.154 µM) | 0.125 µg/mL (≈ 0.305 µM) | MIC (Mycoplasma genitalium [18]; read-out: MIC): 0.063 µg/mL (≈ 0.154 µM); MIC (Mycoplasma genitalium [19]; read-out: MIC): 0.063 µg/mL (≈ 0.154 µM); MIC (Mycoplasma genitalium [21]): 0.008 µg/mL (≈ 0.0195 µM); MIC (Mycoplasma genitalium [22]): 0.008 µg/mL (≈ 0.0195 µM); MIC (Mycoplasma genitalium [23]): 0.008 µg/mL (≈ 0.0195 µM); MIC (Mycoplasma genitalium [24]): 0.008 µg/mL (≈ 0.0195 µM)
2 | C[C@H]1c2cccc(O)c2C(=O)C2=C(O)[C@]3(O)C(=O)C(C(N)=O)=C(O)[C@@H](N(C)C)[C@@H]3[C@@H](O)[C@@H]21.O [DOXYCYCLINE] | 0.063 µg/mL | 0.063 µg/mL | 0.063 µg/mL | 0.063 µg/mL | 0.063 µg/mL | 0.063 µg/mL | 0.063 µg/mL | 0.125 µg/mL | 0.25 µg/mL | 0.063 µg/mL | 0.063 µg/mL | 0.063 µg/mL | 0.063 µg/mL | 0.063 µg/mL | 0.063 µg/mL | 0.063 µg/mL | 0.063 µg/mL | 0.063 µg/mL | 0.25 µg/mL | 0.5 µg/mL | MIC (Mycoplasma genitalium [18]; read-out: MIC): 0.063 µg/mL; MIC (Mycoplasma genitalium [19]; read-out: MIC): 0.063 µg/mL; MIC (Mycoplasma genitalium [21]): 0.063 µg/mL; MIC (Mycoplasma genitalium [22]): 0.063 µg/mL; MIC (Mycoplasma genitalium [23]): 0.063 µg/mL; MIC (Mycoplasma genitalium [24]): 0.063 µg/mL
3 | CCn1cc(C(=O)O)c(=O)c2cc(F)c(N3CCNCC3)cc21 [NORFLOXACIN] | 0.001 µg/mL (≈ 0.00313 µM) | 0.032 µg/mL (≈ 0.1 µM) | 0.032 µg/mL (≈ 0.1 µM) | 0.001 µg/mL (≈ 0.00313 µM) | 0.001 µg/mL (≈ 0.00313 µM) | 0.001 µg/mL (≈ 0.00313 µM) | 0.001 µg/mL (≈ 0.00313 µM) | 0.032 µg/mL (≈ 0.1 µM) | 0.064 µg/mL (≈ 0.2 µM) | 0.032 µg/mL (≈ 0.1 µM) | 0.001 µg/mL (≈ 0.00313 µM) | 0.032 µg/mL (≈ 0.1 µM) | 0.001 µg/mL (≈ 0.00313 µM) | 0.032 µg/mL (≈ 0.1 µM) | 0.001 µg/mL (≈ 0.00313 µM) | 0.001 µg/mL (≈ 0.00313 µM) | 0.001 µg/mL (≈ 0.00313 µM) | 0.001 µg/mL (≈ 0.00313 µM) | ≥ 8 µg/mL | ≥ 8 µg/mL | MIC (Mycoplasma genitalium [18]; read-out: MIC): 0.032 µg/mL (≈ 0.1 µM); MIC (Mycoplasma genitalium [19]; read-out: MIC): 0.032 µg/mL (≈ 0.1 µM); MIC (Mycoplasma genitalium [21]): 0.001 µg/mL (≈ 0.00313 µM); MIC (Mycoplasma genitalium [22]): 0.001 µg/mL (≈ 0.00313 µM); MIC (Mycoplasma genitalium [23]): 0.001 µg/mL (≈ 0.00313 µM); MIC (Mycoplasma genitalium [24]): 0.001 µg/mL (≈ 0.00313 µM)
4 | CC[C@H]1OC(=O)[C@H](C)[C@@H](O[C@H]2C[C@@](C)(OC)[C@@H](O)[C@H](C)O2)[C@H](C)[C@@H](O[C@@H]2O[C@H](C)C[C@H](N(C)C)[C@H]2O)[C@](C)(O)C[C@@H](C)CN(C)[C@H](C)[C@@H](O)[C@]1(C)O [AZITHROMYCIN] | – | – | – | – | – | – | – | – | – | – | – | – | – | – | – | – | – | – | 0.004 µg/mL (≈ 0.00534 µM) | 0.008 µg/mL (≈ 0.0107 µM) | MIC (Mycoplasma genitalium [2]): 0.001 µg/mL (≈ 0.00134 µM); MIC (Mycoplasma genitalium [3]): 0.001 µg/mL (≈ 0.00134 µM); MIC50 (Mycoplasma genitalium [8]): 0.001 µg/mL (≈ 0.00134 µM); MIC90 (Mycoplasma genitalium [8]): 0.002 µg/mL (≈ 0.00267 µM); MIC (Mycoplasma genitalium [9]): 0.001 µg/mL (≈ 0.00134 µM); MIC (Mycoplasma genitalium [11]): 0.001 µg/mL (≈ 0.00134 µM); MIC (Mycoplasma genitalium [13]): 0.001 µg/mL (≈ 0.00134 µM); MIC (Mycoplasma genitalium [18]): 0.001 µg/mL (≈ 0.00134 µM); MIC (Mycoplasma genitalium [19]): 0.001 µg/mL (≈ 0.00134 µM)
5 | COc1c(N2CCNC(C)C2)c(F)cc2c(=O)c(C(=O)O)cn(C3CC3)c12 (stereo not given) [GATIFLOXACIN] | 0.031 µg/mL (≈ 0.0826 µM) | 0.125 µg/mL (≈ 0.333 µM) | 0.125 µg/mL (≈ 0.333 µM) | 0.031 µg/mL (≈ 0.0826 µM) | 0.031 µg/mL (≈ 0.0826 µM) | 0.031 µg/mL (≈ 0.0826 µM) | 0.031 µg/mL (≈ 0.0826 µM) | 0.25 µg/mL (≈ 0.666 µM) | 0.25 µg/mL (≈ 0.666 µM) | 0.125 µg/mL (≈ 0.333 µM) | 0.031 µg/mL (≈ 0.0826 µM) | 0.125 µg/mL (≈ 0.333 µM) | 0.031 µg/mL (≈ 0.0826 µM) | 0.125 µg/mL (≈ 0.333 µM) | 0.031 µg/mL (≈ 0.0826 µM) | 0.031 µg/mL (≈ 0.0826 µM) | 0.031 µg/mL (≈ 0.0826 µM) | 0.031 µg/mL (≈ 0.0826 µM) | 0.5 µg/mL (≈ 1.33 µM) | 0.5 µg/mL (≈ 1.33 µM) | MIC (Mycoplasma genitalium [18]; read-out: MIC): 0.125 µg/mL (≈ 0.333 µM); MIC (Mycoplasma genitalium [19]; read-out: MIC): 0.125 µg/mL (≈ 0.333 µM); MIC (Mycoplasma genitalium [21]): 0.031 µg/mL (≈ 0.0826 µM); MIC (Mycoplasma genitalium [22]): 0.031 µg/mL (≈ 0.0826 µM); MIC (Mycoplasma genitalium [23]): 0.031 µg/mL (≈ 0.0826 µM); MIC (Mycoplasma genitalium [24]): 0.031 µg/mL (≈ 0.0826 µM)
